Results as given in article PMC3493272, “CYP98A22, a phenolic ester 3’-hydroxylase specialized in the synthesis of chlorogenic acid, as a new tool for enhancing the furanocoumarin concentration in Ruta graveolens” (BMC Plant Biology, 2012).

What was measured:
Type in all cases: biochemical
[1] = target: T1, CYP98A22 (Ruta graveolens, UniProt H9LJF9); experiment: LC-MS of caffeoyl quinate formed by plant microsomes; settings: 0.2 mM NADPH; 20 mM phosphate pH 7.0; 28 °C; 30 min; microsomes from N. benthamiana expressing the enzyme
T1 construct: full-length, 508 residues, untagged; transient expression in Nicotiana benthamiana leaves with TBSV P19, leaf microsomes
From the text: LC-MS of caffeoyl quinate formed by plant microsomes on CYP98A22

[2] = target: T2, CYP98A3 (Arabidopsis thaliana, UniProt O22203); experiment: HPLC and LC-MS of caffeoyl quinate formed by plant microsomes; settings: 100 μM substrate; 0.2 mM NADPH; pH 7.0; 28 °C; microsomes from N. benthamiana expressing the enzyme
T2 construct: full-length, untagged; transient expression in Nicotiana benthamiana leaves with TBSV P19, leaf microsomes (also yeast WAT11 microsomes)
T2 sequence (O22203 1-508): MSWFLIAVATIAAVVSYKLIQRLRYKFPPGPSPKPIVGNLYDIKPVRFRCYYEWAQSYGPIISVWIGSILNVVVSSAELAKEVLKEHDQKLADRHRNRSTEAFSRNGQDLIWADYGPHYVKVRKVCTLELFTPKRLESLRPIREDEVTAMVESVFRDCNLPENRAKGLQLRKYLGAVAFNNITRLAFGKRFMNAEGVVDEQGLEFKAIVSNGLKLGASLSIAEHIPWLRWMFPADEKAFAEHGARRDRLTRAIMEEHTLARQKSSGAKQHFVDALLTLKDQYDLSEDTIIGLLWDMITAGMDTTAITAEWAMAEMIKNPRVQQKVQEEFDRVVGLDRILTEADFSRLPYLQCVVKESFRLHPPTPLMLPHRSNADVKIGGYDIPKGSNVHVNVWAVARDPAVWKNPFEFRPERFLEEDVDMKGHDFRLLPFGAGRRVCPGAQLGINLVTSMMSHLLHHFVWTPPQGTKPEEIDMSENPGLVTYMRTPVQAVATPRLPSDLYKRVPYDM

[3] = target: T2, CYP98A3; experiment: HPLC and LC-MS of caffeoyl shikimate formed by plant microsomes; settings: 100 μM substrate; 0.2 mM NADPH; pH 7.0; 28 °C; microsomes from N. benthamiana expressing the enzyme
[4] = target: T1, CYP98A22; experiment: LC-MS of caffeoyl shikimate formed by plant microsomes; settings: 0.2 mM NADPH; 20 mM phosphate pH 7.0; 28 °C; 30 min; microsomes from N. benthamiana expressing the enzyme
From the text: LC-MS of caffeoyl shikimate formed by plant microsomes on CYP98A22

T1 sequence (H9LJF9 entry or part of it): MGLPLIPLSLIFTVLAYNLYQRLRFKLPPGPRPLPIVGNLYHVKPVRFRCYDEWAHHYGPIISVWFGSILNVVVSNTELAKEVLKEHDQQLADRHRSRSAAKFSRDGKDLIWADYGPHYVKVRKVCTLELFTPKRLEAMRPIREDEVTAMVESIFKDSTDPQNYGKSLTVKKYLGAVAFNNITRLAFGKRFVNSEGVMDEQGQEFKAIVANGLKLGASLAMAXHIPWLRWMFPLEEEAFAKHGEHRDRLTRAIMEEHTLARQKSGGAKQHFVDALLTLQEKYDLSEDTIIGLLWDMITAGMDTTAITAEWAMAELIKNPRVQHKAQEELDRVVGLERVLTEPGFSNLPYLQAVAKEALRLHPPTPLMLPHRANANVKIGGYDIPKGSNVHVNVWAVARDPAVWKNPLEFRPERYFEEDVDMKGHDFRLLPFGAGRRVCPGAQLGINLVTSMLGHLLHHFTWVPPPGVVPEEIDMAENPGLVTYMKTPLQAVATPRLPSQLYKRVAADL

| Compound | Km [1] [µM] | HPLC and LC-MS of caffeoyl quinate formed by plant microsomes [2] | HPLC and LC-MS of caffeoyl shikimate formed by plant microsomes [3] | Km [4] [µM] |
| --- | --- | --- | --- | --- |
| O=C(/C=C/c1ccc(O)cc1)O[C@@H]1C[C@](O)(C(=O)O)C[C@@H](O)[C@H]1O [p-coumaroyl quinate] | 7 ± 5 | both p-coumaroyl quinate and p-coumaroyl shikimate were hydroxylated to their caffeic counterparts | – | – |
| O=C(/C=C/c1ccc(O)cc1)O[C@@H]1CC(C(=O)O)=C[C@@H](O)[C@H]1O [p-coumaroyl shikimate] | – | – | both p-coumaroyl quinate and p-coumaroyl shikimate were hydroxylated to their caffeic counterparts | 24 ± 7 |
